Results as given in paper PMC11898053, “Structure-Based Identification of Non-covalent Prolyl Oligopeptidase 80 Inhibitors Targeting Trypanosoma cruzi Cell Entry” (Journal of Chemical Information and Modeling, 2025).
Where two headings read alike, the source gives them in different places.

Assays:
recombinant POPTc80 = recombinant POPTc80 (Trypanosoma cruzi, UniProt Q4E132); experiment: POPTc80 enzyme inhibition and kinetic assay (Suc-GPLGP-AMC fluorogenic substrate); type: biochemical
Experimental: The enzyme activity was assessed using the fluorogenic substrate Suc-GPLGP-AMC previously described by Santana et al.[14] A total of 20 ng of pure recombinant POPTc80 was incubated with 20 μM Suc-GPLGP-AMC in a 25 mM HEPES buffer containing 5 mM DTT at pH 7.5. The release of AMC was monitored over a period of 20 min by measuring its emission at 460 nm, following excitation at 355 nm, using a 96-well microplate fluorescence reader (M5, Molecular Devices). The IC50 values were obtained by a series of at least 9 points from 200 to 0.01 μM of the compound, plus the control. The data were subjected to a four-parameter logistic (4 PL) nonlinear regression model using GraphPad Prism 8 software to calculate the IC50. […] Active enzyme concentration was determined by titration with a chloromethyl ketone irreversible inhibitor of POPTc80.[13] All kinetic parameters were determined by nonlinear regression employing the GraphPad Prism enzyme kinetics module and Hanes-Woolf plots.[64]

[1] = system: T. cruzi strain Y trypomastigotes; experiment: Host cell infection inhibition assay (trypomastigote entry into L6 cells); type: cell-based, Trypanosoma cruzi; settings: 1 h preincubation, 3 h infection, 72 h culture
Experimental: The assay was performed as previously described by Grellier et al.,[15] with slight modifications. Briefly, L6 cells were seeded in flasks containing RPMI medium supplemented with 5% fetal bovine serum and 1% penicillin/streptomycin (Gibco 15140122) and incubated at 37 °C in a 5% CO2 atmosphere. Trypomastigotes of T. cruzi strain Y were preincubated for 1 h at 37 °C in a culture medium containing different concentrations of inhibitors (0–200 μM, five points). Subsequently, they were added to L6 cell cultures that had been previously grown for 24h in 96-well plates (1000 cells/well) at a trypomastigote-to-host cell ratio of 30:1. After 3 h incubation at 37 °C, the wells were washed three times with inhibitor-free culture medium, and the cells were maintained for 72 h without inhibitors before fixation and staining with panoptic stain. The percentage of infected cells was determined by counting at least 200 host cells under 400-fold magnification. The inhibition of host cell invasion was calculated by comparing the percentage of infected cells in treated wells to that in untreated control wells. The concentration required to inhibit 50% of invasion (EC50) was determined using a nonlinear regression model applied to dose–response curves in GraphPad Prism v.8.

[2] = Cytotoxicity assay (resazurin); type: cell-based; settings: rat, L6 cells, pH 7.4; 72 h incubation
Experimental: L6 cells were cultured in 96-well plates at a density of 1 × 10^4 cells/well in 100 μL of RPMI 1640 medium supplemented with 10% heat-inactivated fetal bovine serum (FBS) and 25 mM HEPES pH 7.4, maintained at 37 °C, under a 5% CO2 atmosphere. After 24h, the compounds were diluted, starting at a concentration of 200 μM, in 100 μL of complete culture medium per well. Subsequently, 100 μL of the diluted compounds were added to the seeded cells. After 72 h of incubation, Resazurin solution (Sigma) was added to a final concentration of 20 μM and incubated for another 4h at 37 °C. Fluorescence was then measured at 570 nm (excitation) and 595 nm (emission) using a SpectraMax M5 microplate reader (Molecular Devices, Sunnyvale, CA, USA). The cytotoxic concentrations causing 50% inhibition of cell growth (CC50) were determined from data obtained in two independent experiments and calculated similarly to the EC50, as described above.

T. cruzi = system: T. cruzi; design: method as in PMID 11598112; settings: phenotypic data; cited from earlier work
POPTc80 = settings: cited from earlier work
[3] = 20 μM Suc-GPLGP-AMC, pH 7.5, means ± SD of three replications, read-out: POPTc80 IC50
[4] = Trypanosoma cruzi, L6, inhibition of host cell invasion
[5] = inhibition of host cell invasion
[6] = four compound and five substrate concentrations, means ± SD of three replications, read-out: POPTc80 Ki

Sequence of recombinant POPTc80 (Q4E132 entry or part of it): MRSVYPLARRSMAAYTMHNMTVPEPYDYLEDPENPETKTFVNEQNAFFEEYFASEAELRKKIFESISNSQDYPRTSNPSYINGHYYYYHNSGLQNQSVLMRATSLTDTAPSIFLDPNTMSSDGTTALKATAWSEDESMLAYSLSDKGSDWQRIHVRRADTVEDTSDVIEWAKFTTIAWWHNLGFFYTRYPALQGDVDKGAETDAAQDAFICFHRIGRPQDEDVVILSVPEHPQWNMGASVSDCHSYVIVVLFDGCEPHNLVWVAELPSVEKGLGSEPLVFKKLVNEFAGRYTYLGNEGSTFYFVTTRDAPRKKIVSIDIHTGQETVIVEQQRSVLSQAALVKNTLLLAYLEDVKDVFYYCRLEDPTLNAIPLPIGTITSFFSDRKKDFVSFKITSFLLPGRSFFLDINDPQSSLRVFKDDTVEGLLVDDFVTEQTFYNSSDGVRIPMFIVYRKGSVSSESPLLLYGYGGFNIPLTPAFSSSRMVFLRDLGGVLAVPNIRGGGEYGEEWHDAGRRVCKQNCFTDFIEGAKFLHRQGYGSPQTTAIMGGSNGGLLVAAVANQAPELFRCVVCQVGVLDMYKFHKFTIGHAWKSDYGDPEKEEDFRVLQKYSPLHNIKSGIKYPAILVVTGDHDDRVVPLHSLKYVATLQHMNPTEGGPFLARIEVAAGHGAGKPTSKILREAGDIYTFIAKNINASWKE

Row | Compound | IC50 (recombinant POPTc80; [3]) | EC50 [1, 4] | CC50 at 72 h [2] | POPTc80 LE (ligand efficiency) (recombinant POPTc80) | other results
1 | O=C(NCCc1cnn(-c2ccccc2)c1)C1CCCCN1C(=O)C1CC1 (stereo not drawn) [LC-39] | > 20 µM |  |  |  | 
2 | O=C(NCCCc1nc2cc(Cl)ccc2[nH]1)C1CCCCN1C(=O)C1CC1 (stereo not drawn) [LC-40] | > 20 µM |  |  |  | 
3 | O=C(NCCc1nccs1)C1CCCCN1C(=O)C1CC1 (stereo not drawn) [LC-41] | > 20 µM |  |  |  | 
4 | O=C(NCCc1nc2cc(F)ccc2[nH]1)C1CCCCN1C(=O)C1CC1 (stereo not drawn) [LC-42] | > 20 µM |  |  |  | 
5 | O=C(NCCOc1cccc2cccnc12)C1CCCCC1C(=O)N1CCCC1 (stereo not drawn) [LC-44] | 0.64 ± 0.1 µM | 92.5 µM | > 200 µM | 0.33 kcal/mol per heavy atoms | EC50 [1, 5]: 92.4 ± 3.74 µM; Ki (recombinant POPTc80; [6]): 0.175 ± 0.031 µM
6 | O=C(NCCc1cscn1)C1CCCCC1C(=O)N1CCCC1 (stereo not drawn) [LC-45] | 0.23 ± 0.08 µM | 46.7 ± 3.55 µM | > 200 µM | 0.44 kcal/mol per heavy atoms | Ki (recombinant POPTc80; [6]): 0.054 ± 0.006 µM
7 | O=C(NCCCc1ccccn1)C1CCCCC1C(=O)N1CCCC1 (stereo not drawn) [LC-46] | 0.4 ± 0.24 µM | 46.6 ± 20.8 µM | > 200 µM | 0.35 kcal/mol per heavy atoms | Ki (recombinant POPTc80; [6]): 0.513 ± 0.218 µM
8 | Cc1nc2ccc(CNC(=O)C3CCCCC3C(=O)N3CCCC3)cc2[nH]1 (stereo not drawn) [LC-47] |  |  |  | 0.30 kcal/mol per heavy atoms | IC50 (recombinant POPTc80; read-out: POPTc80 IC50, 20 μM Suc-GPLGP-AMC, pH 7.5, means ± SD of three replications): 1.21 ± 0.32 µM; Ki (recombinant POPTc80; read-out: POPTc80 Ki, four compound and five substrate concentrations, means ± SD of three replications): 1.99 ± 0.26 µM
9 | O=C(NCCc1cnccn1)C1CCCCC1C(=O)N1CCCC1 (stereo not drawn) [LC-48] | 0.95 ± 0.1 µM |  |  |  | 
10 | Cc1csc(SCC(=O)N2CCCC2C(=O)N2CCOCC2)n1 (stereo not drawn) [LC-49] | > 20 µM |  |  |  | 
11 | O=C(C1CCCN1C(=O)NCc1cc2ccccc2s1)N1CCOCC1 (stereo not drawn) [LC-50] |  | 80.2 ± 5.27 µM | > 200 µM | 0.31 kcal/mol per heavy atoms | IC50 (recombinant POPTc80): 0.59 ± 0.19 µM; Ki (recombinant POPTc80): 0.44 ± 0.09 µM
12 | Cn1c(CNC(=O)C2CCCCC2C(=O)N2CCCC2)nc2ccccc21 (stereo not drawn) [LC-53] | 0.27 ± 0.07 µM | 24.9 ± 3.45 µM | > 200 µM | 0.35 kcal/mol per heavy atoms | Ki (recombinant POPTc80; [6]): 0.158 ± 0.044 µM
13 | Cc1cccc(NC(=O)CC(=O)N2CCCC2C(=O)N2CCOCC2)c1 (stereo not drawn) [LC-54] | > 20 µM |  |  |  | 
14 | O=C(C1CCCN1C(=O)CCCc1ccc(Cl)cc1)N1CCOCC1 (stereo not drawn) [LC-55] | 0.44 ± 0.08 µM | 16.2 µM | > 200 µM | 0.35 kcal/mol per heavy atoms | EC50 [1, 5]: 18.6 ± 3.79 µM; Ki (recombinant POPTc80; [6]): 0.83 ± 0.11 µM
15 | Cc1nn(C)c(C)c1CCC(=O)N1CCCC1C(=O)N1CCCCC1 (stereo not drawn) [LC-56] | > 20 µM |  |  |  | 
16 | O=C(C1CCCN1C(=O)Cn1sc2ccccc2c1=O)N1CCCCC1 (stereo not drawn) [LC-57] | > 20 µM |  |  |  | 
17 | COC(OC)C1CCCN1C(=O)C1CCCN1C(=O)OCc1ccccc1 (stereo not drawn) [ZPPD, Z-P-prolinal dimethylacetal] |  |  |  | 0.31 kcal/mol per heavy atoms | EC50 (T. cruzi): 250 µM; IC50 (POPTc80): 6.7 µM; Ki (POPTc80): 1.12 ± 0.12 µM
